Test results from patent publication US20240392271A1, “ENGINEERED CASX REPRESSOR SYSTEMS” (Scribe Therapeutics Inc., priority 2021, published 2024).

Columns and labels:
[1] = tested on: HBEGF locus; type: cell-based, human; details: dCasX491-KRAB lentiviral library, spacer 34.28, HEK293T, 2 ng/ml diphtheria toxin 48 hours
[2] = tested on: B2M promoter; experiment: B2M repression with gRNAs tiled across the B2M promoter, dXR1 vs ELXR #1 (Example 10); type: cell-based, human; details: HEK293T, six days after lipofection, unlike the effects seen with dXR1
Procedure: ELXR #1 containing the ZIM3-KRAB domain, as described in Example 6, and dXR1, as described in Example 1, were assessed in this experiment. Various gRNAs with scaffold 174 containing a B2M-targeting spacer were used in this experiment.
The next day, cells were selected with puromycin for four additional days. […] HEK293T cells transfected with either ELXR #1 or dXR1 with a non-targeting gRNA was included as an experimental control. FIG. 21A is a schematic illustrating the tiling of the various B2M-targeting gRNAs (spacers listed in Table 31) within a ˜1 KB window of the B2M promoter.

| Substance | log2 (fold change) in abundance of the KRAB domain before and after selection [1] | B2M repression (HLA-negative cells) mediated by ELXR #1 with the spacer [2] |
| --- | --- | --- |
| Zim3: ZIM3 KRAB domain, SEQ ID NO: 337 [reference compound] | 1.7787 | – |
| spacer 7.165: B2M-targeting, ELXR-specific spacer, UCCCUAUGUCCUUGCUGUUU, SEQ ID NO: 59667 (listed as RNA, chemistry not fully specified) | – | meaningful B2M repression |
